“And” between values parts separate entries of the source, which are not always exact repeats. Identical values can stand only once.
Assays:
[1] = target: T1, Gonadotropin-releasing hormone receptor (Rattus norvegicus, UniProt P30969); experiment: Binding affinity to Gonadotropin-releasing hormone receptor (GnRHr) in rat pituitary cells
T1 sequence (P30969 whole entry): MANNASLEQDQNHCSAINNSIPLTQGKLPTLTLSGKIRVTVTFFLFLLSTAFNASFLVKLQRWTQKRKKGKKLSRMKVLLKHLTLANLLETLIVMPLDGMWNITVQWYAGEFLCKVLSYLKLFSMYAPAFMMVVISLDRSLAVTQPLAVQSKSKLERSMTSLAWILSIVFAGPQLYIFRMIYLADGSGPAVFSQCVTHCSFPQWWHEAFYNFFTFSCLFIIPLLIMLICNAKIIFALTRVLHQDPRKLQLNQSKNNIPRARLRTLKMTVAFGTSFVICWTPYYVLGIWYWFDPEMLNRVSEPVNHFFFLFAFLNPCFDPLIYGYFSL

[2] = Compound was evaluated for its antagonism in CHO cells expressing the human receptor (hPI); type: functional, cell-based
[3] = target: T2, Gonadotropin-releasing hormone receptor (Homo sapiens, UniProt P30968); experiment: Inhibition of recombinant human Gonadotropin-releasing hormone receptor
T2 sequence (P30968 whole entry): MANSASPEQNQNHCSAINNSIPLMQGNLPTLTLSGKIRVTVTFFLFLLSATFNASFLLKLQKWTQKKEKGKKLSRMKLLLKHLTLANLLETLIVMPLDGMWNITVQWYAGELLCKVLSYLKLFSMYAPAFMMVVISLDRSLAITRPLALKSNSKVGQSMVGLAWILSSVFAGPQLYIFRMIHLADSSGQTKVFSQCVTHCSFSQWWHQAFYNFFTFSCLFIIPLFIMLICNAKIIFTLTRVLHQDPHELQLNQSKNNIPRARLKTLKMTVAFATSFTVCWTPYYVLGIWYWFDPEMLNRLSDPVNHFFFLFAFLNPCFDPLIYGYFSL

[4] = target: T1, Gonadotropin-releasing hormone receptor; experiment: Compound was evaluated for its antagonism in rat primary pituitary cell assay (rLH); type: functional, cell-based, Pituitary gland cell
[5] = target: T1, Gonadotropin-releasing hormone receptor; experiment: Compound was evaluated for its inhibitory activity against rat pituitary Gonadotropin-releasing hormone receptor

Cc1cc(C)cc(-c2c(O)nc3cc(Cl)c(NC(=O)c4cncnc4)cc3c2OCC[C@@H]2CCCCN2)c1
IC50 [1]: 0.025 µM
IC50 [2]: 0.225 µM

O=C(Nc1cc2c(OCCC3CCCCN3)c(-c3ccc(Cl)c(Cl)c3)c(O)nc2cc1Cl)NC1CC1 (stereo not drawn)
IC50 [1]: 0.018 µM

Cc1cc(-c2c(O)nc3cc(Cl)c(C(=O)Nc4ccncn4)cc3c2OCC[C@@H]2CCCCN2)ccc1I
IC50 [2]: 0.0071 µM
IC50 [3]: 0.0005 µM

Cc1cccc(-c2c(OCCC3CCCCN3)c3cc(NC(=O)NC4CC4)c(Cl)cc3[nH]c2=O)c1 (stereo not drawn)
IC50 [1]: 0.023 µM

Cc1cc(C)cc(-c2c(OCC[C@@H]3CCCCN3)c3cc(NC(=O)Nc4ccncn4)c(Cl)cc3[nH]c2=O)c1
IC50 [3]: 0.0018 µM

COc1ccc(-c2c(O)nc3cc(Cl)c([N+](=O)[O-])cc3c2OCCC2CCCCN2)cc1OC (stereo not drawn)
IC50 [1]: 0.6 µM

CCN(CC)Cc1cc(C)cc(-c2c(OCCC3CCCCN3)c3cc([N+](=O)[O-])c(Cl)cc3[nH]c2=O)c1 (stereo not drawn)
IC50 [1]: 0.27 µM

Cc1ccc(-c2c(O)nc3cc(Cl)c(C(=O)Nc4ccncn4)cc3c2OCC[C@@H]2CCCCN2)cc1C
IC50 [2]: 0.0065 µM
IC50 [3]: 0.0007 µM

Cc1cc(C)cc(-c2c(OCC[C@@H]3CCCCN3)c3cc(NC(=O)Nc4cnccn4)c(Cl)cc3[nH]c2=O)c1
IC50 [3]: 0.0011 µM

Cc1cc(C)cc(-c2c(O)nc3cc(Cl)c(NC(=O)Nc4ccccn4)cc3c2OCCC2CCCCN2)c1 (stereo not drawn)
IC50 [1]: 0.015 µM
IC50 [4]: 0.463 µM

O=c1[nH]c2cc(Cl)c([N+](=O)[O-])cc2c(OCCC2CCCCN2)c1-c1ccc2ccccc2c1 (stereo not drawn)
IC50 [1]: 0.053 µM

O=c1[nH]c2cc(Cl)c([N+](=O)[O-])cc2c(OCCC2CCCCN2)c1-c1cc(C(F)(F)F)cc(C(F)(F)F)c1 (stereo not drawn)
IC50 [1]: 0.071 µM

O=[N+]([O-])c1cc2c(OCCC3CCCCN3)c(-c3cccc(F)c3)c(O)nc2cc1Cl (stereo not drawn)
IC50 [1]: 0.053 µM

O=C(Nc1ccncn1)c1cc2c(OCC[C@@H]3CCCCN3)c(-c3ccc4c(c3)CCC4)c(O)nc2cc1Cl
IC50 [2]: 0.016 µM
IC50 [3]: 0.0007 µM

COc1ccc(-c2c(OCCC3CCCCN3)c3cc([N+](=O)[O-])c(Cl)cc3[nH]c2=O)cc1C (stereo not drawn)
IC50 [1]: 0.04 µM

O=C(Nc1ccncn1)c1cc2c(OCC[C@@H]3CCCCN3)c(-c3ccc(Cl)s3)c(O)nc2cc1Cl
IC50 [2]: 0.053 µM
IC50 [3]: 0.0039 µM

O=C(Nc1cc2c(OCCC3CCCCN3)c(-c3cccc(Br)c3)c(=O)[nH]c2cc1Cl)NC1CC1 (stereo not drawn)
IC50 [1]: 0.006 µM

Cc1cc(CC(N)=O)cc(-c2c(O)nc3cc(Cl)c([N+](=O)[O-])cc3c2OCCC2CCCCN2)c1 (stereo not drawn)
IC50 [1]: 0.071 µM

O=c1[nH]c2cc(Cl)c([N+](=O)[O-])cc2c(OCCC2CCCCN2)c1-c1ccsc1 (stereo not drawn)
IC50 [1]: 0.9 µM

O=C(Nc1ccncn1)c1cc2c(OCC[C@@H]3CCCCN3)c(-c3ccc(Cl)c(Cl)c3)c(O)nc2cc1Cl
IC50 [2]: 0.0077 µM
IC50 [3]: 0.001 µM

Cc1cccc(-c2c(O)nc3cc(Cl)c([N+](=O)[O-])cc3c2OCCC2CCCCN2)c1 (stereo not drawn)
IC50 [1]: 0.027 µM

Cc1ccc(-c2c(OCCC3CCCCN3)c3cc([N+](=O)[O-])c(Cl)cc3[nH]c2=O)cc1C (stereo not drawn)
IC50 [1]: 0.018 µM

Cc1ccc(-c2c(OCCC3CCCCN3)c3cc(NC(=O)NC4CC4)c(Cl)cc3[nH]c2=O)cc1C (stereo not drawn)
IC50 [1]: 0.006 µM

O=C(Nc1ccncn1)c1cc2c(OCC[C@@H]3CCCCN3)c(-c3cc(Cl)cc(Cl)c3)c(O)nc2cc1Cl
IC50 [2]: 0.0085 µM
IC50 [3]: 0.0011 µM

O=[N+]([O-])c1cc2c(OCCC3CCCCN3)c(-c3ccc(Cl)c(Cl)c3)c(O)nc2cc1Cl (stereo not drawn)
IC50 [1]: 0.029 µM

Cc1cc(C)cc(-c2c(O)nc3cc(Cl)c(NC(=O)Nc4cccnc4)cc3c2OCCC2CCCCN2)c1 (stereo not drawn)
IC50 [1]: 0.02 µM
IC50 [4]: 1.3 µM

Cc1ccc(-c2c(O)nc3cc(Cl)c([N+](=O)[O-])cc3c2OCCC2CCCCN2)c(C)c1 (stereo not drawn)
IC50 [1]: 0.4 µM

Cc1cc(CC#N)cc(-c2c(O)nc3cc(Cl)c([N+](=O)[O-])cc3c2OCCC2CCCCN2)c1 (stereo not drawn)
IC50 [1]: 0.018 µM

Cc1cc(C)cc(-c2c(O)nc3cc(Cl)c(NC(=O)c4cnccn4)cc3c2OCC[C@@H]2CCCCN2)c1
IC50 [2]: 0.023 µM
IC50 [3]: 0.002 µM

Cc1cc(C)cc(-c2c(O)nc3cc(Cl)c(NC(=O)Nc4ccncc4)cc3c2OCCC2CCCCN2)c1 (stereo not drawn)
IC50 [1]: 0.04 µM

Cc1cc(C)cc(-c2c(O)nc3cc(Cl)c(NC(=O)c4cnccn4)cc3c2OCCC2CCCCN2)c1 (stereo not drawn)
IC50 [1]: 0.0018 µM
IC50 [4]: 1.92 µM
IC50 [3]: 0.01 µM

O=[N+]([O-])c1cccc(-c2c(O)nc3cc(Cl)c([N+](=O)[O-])cc3c2OCCC2CCCCN2)c1 (stereo not drawn)
IC50 [1]: 0.1 µM

Cc1cc(-c2c(O)nc3cc(Cl)c(C(=O)Nc4ccncn4)cc3c2OCC[C@@H]2CCCCN2)cc(C)c1C
IC50 [2]: 0.0022 µM
IC50 [3]: 0.0003 µM

O=c1[nH]c2cc(Cl)c([N+](=O)[O-])cc2c(OCCC2CCCCN2)c1-c1ccccc1Cl (stereo not drawn)
IC50 [1]: 0.36 µM

O=c1[nH]c2cc(Cl)c([N+](=O)[O-])cc2c(OCCC2CCCCN2)c1-c1ccccc1 (stereo not drawn)
IC50 [1]: 0.41 µM

O=[N+]([O-])c1cc2c(OCCC3CCCCN3)c(-c3cccc(Br)c3)c(O)nc2cc1Cl (stereo not drawn)
IC50 [1]: 0.04 µM

Cc1cc(C)cc(-c2c(O)nc3cc(Cl)c(NC(=O)Nc4cncnc4)cc3c2OCC[C@@H]2CCCCN2)c1
IC50 [2]: 0.897 µM
IC50 [3]: 0.057 µM

Cc1cc(C)cc(-c2c(O)nc3cc(Cl)c(NC(=O)Nc4cnccn4)cc3c2OCCC2CCCCN2)c1 (stereo not drawn)
IC50 [1]: 0.0003 µM
IC50 [4]: 0.056 µM
IC50 [2]: 0.009 µM

Cc1cc(C)cc(-c2c(OCCC3CCCCN3)c3cc(NC(=O)Nc4ccncn4)c(Cl)cc3[nH]c2=O)c1 (stereo not drawn)
IC50 [1]: 0.0006 µM
IC50 [4]: 0.235 µM and 0.052 µM
IC50 [5]: 0.0004 µM

CC(=O)OCc1cc(C)cc(-c2c(O)nc3cc(Cl)c([N+](=O)[O-])cc3c2OCCC2CCCCN2)c1 (stereo not drawn)
IC50 [1]: 0.045 µM

O=c1[nH]c2cc(Cl)c([N+](=O)[O-])cc2c(OCCC2CCCCN2)c1-c1cc(Cl)cc(Cl)c1 (stereo not drawn)
IC50 [1]: 0.024 µM

Cc1cc(C)cc(-c2c(OCC[C@@H]3CCCCN3)c3cc(NC(=O)NC4CC4)c(Cl)cc3[nH]c2=O)c1
IC50 [3]: 0.0023 µM

Cc1cc(-c2c(O)nc3cc(Cl)c([N+](=O)[O-])cc3c2OCCC2CCCCN2)cc(C(C)O)c1 (stereo not drawn)
IC50 [1]: 0.063 µM

O=c1[nH]c2cc(Cl)c([N+](=O)[O-])cc2c(OCCC2CCCCN2)c1-c1cccs1 (stereo not drawn)
IC50 [1]: 0.22 µM

O=c1[nH]c2cc(Cl)c([N+](=O)[O-])cc2c(OCCC2CCCCN2)c1-c1ccc(Cl)cc1 (stereo not drawn)
IC50 [1]: 0.16 µM

O=c1[nH]c2cc(Cl)c([N+](=O)[O-])cc2c(OCCC2CCCCN2)c1-c1ccc(Cl)s1 (stereo not drawn)
IC50 [1]: 0.023 µM

CC(C)(C)c1ccc(-c2c(OCCC3CCCCN3)c3cc([N+](=O)[O-])c(Cl)cc3[nH]c2=O)cc1 (stereo not drawn)
IC50 [1]: 0.2 µM

Cc1cc(C)cc(-c2c(O)nc3cc(Cl)c(CC(=O)Nc4ccncn4)cc3c2OCCC2CCCCN2)c1 (stereo not drawn)
IC50 [1]: 0.0079 µM
IC50 [4]: 2.5 µM
IC50 [2]: 0.227 µM

Cc1cc(C)cc(-c2c(O)nc3cc(Cl)c(NC(=O)NC4CC4)cc3c2OCCC2CCCCN2)c1 (stereo not drawn)
IC50 [1]: 0.0008 µM
IC50 [4]: 0.375 µM and 0.682 µM
IC50 [2]: 0.012 µM and 0.005 µM
IC50 [5]: 0.0011 µM

O=C(Nc1cc2c(OCCC3CCCCN3)c(-c3ccc4ccccc4c3)c(=O)[nH]c2cc1Cl)NC1CC1 (stereo not drawn)
IC50 [1]: 0.068 µM

O=[N+]([O-])c1cc2c(OCCC3CCCCN3)c(-c3ccc(-c4ccccc4)c(Cl)c3)c(O)nc2cc1Cl (stereo not drawn)
IC50 [1]: 0.9 µM

O=c1[nH]c2cc(Cl)c([N+](=O)[O-])cc2c(OCCC2CCCCN2)c1-c1cccc(Cl)c1 (stereo not drawn)
IC50 [1]: 0.04 µM

Cc1cc(C)cc(-c2c(O)nc3cc(Cl)c(NC(=O)Nc4ncccn4)cc3c2OCCC2CCCCN2)c1 (stereo not drawn)
IC50 [1]: 0.006 µM

Cc1cc(C)cc(-c2c(OCCC3CCCCN3)c3cc(NC(=O)Nc4ccccc4)c(Cl)cc3[nH]c2=O)c1 (stereo not drawn)
IC50 [1]: 0.01 µM
IC50 [4]: 3.3 µM
